Test results as given in US10774046B2, “Inhibitors for the treatment of cancer and related methods” (UNIVERSITY OF LOUISVILLE RESEARCH FOUNDATION, INC., priority 2017, dated 2020).

How the values were obtained:
hT/LT/Ras cells = assay: cell growth of transformed cells, live cell count; format: cell-based, human; settings: live cells at 48 hours
From the text: H460, H1299, H441, H522 and A549 non-small cell lung cancer (NSCLC), MDA-MB-231 (breast), LNCaP (prostatic) and HCT116 (colon) adenocarcinoma and Lewis lung carcinoma (LLC) cell lines were obtained from ATCC and used within 6 months of acquisition. PFKFB4^−/− ear pinna fibroblasts isolated from TamCre/loxP/PFKFB4^−/− mice were immortalized as described previously (Chesney J et al. Fructose-2,6-bisphosphate synthesis by 6-phosphofructo-2-kinase/fructose-2,6-bisphosphatase 4 (PFKFB4) is required for the glycolytic response to hypoxia and tumor growth. Oncotarget 2014 Aug. 30; 5(16):6670-86). Normal bronchial epithelial cells (NHBE) were obtained from Lonza and NHBE cells expressing telomerase, SV40 large T antigen and activated Ras (hT/LT/Ras) were a gift from Dr. B. J. Rollins, Dana Farber Cancer Institute. All cell lines were tested and found negative for mycoplasma (PCR Mycoplasma Detection Kit, ABM). Cell lines were grown in DMEM (A549, LNCaP, MDA-MB-231, LLC and PFKFB4^−/−), RPMI 1640 (H460, H1299, H441, H522) and McCoy's 5A media (HCT116) (all from Invitrogen) containing 10% fetal calf serum (Hyclone). […]
Cells were incubated in 20% trypan blue (Sigma) for 5 minutes. Cells excluding trypan blue were counted using a standard hemocytometer (Hausser Scientific) to determine total numbers of viable cells. Data are expressed as mean±SD of three experiments.

H460 cells [1] = assay: apoptosis by flow cytometry (annexin V / propidium iodide); format: cell-based, human; settings: H460, 10 μM 5MPN
Protocol: (§1) To measure apoptosis, cells were stained with annexin V and propidium iodide and examined as previously described. For example, H460 cells were exposed to increasing concentrations of the PFKFB4 inhibitor (MPN-2), the PFKFB3 inhibitor PFK15 (Tocris) or both and viable cells were counted at 24, 48 and 72 hours. DMSO used as vehicle. For cell cycle experiments, cells were detached, washed with cold PBS and fixed in 70% ethanol (4° C., 30 minutes). The cells then were pelleted by centrifugation, resuspended in PBS containing PI and RNase A, incubated at 37° C. in the dark for 30 minutes and analyzed by flow cytometry (BD FACSCalibur). Data were analyzed using FlowJo software (TREE STAR Inc.). Results were calculated as the mean±SD of three experiments. The effects (Fa values) of the series of concentrations of MPN-2 and PFK-15 were examined individually and in combination at a constant ratio of 1:1.

H460 cells [2] = assay: cell cycle analysis by flow cytometry; format: cell-based, human
Protocol: as §1

LLC xenografts = assay: intratumoral F2,6BP; format: in vivo, C57BL/6 mice; settings: 120 mg/kg by gavage daily, 10 days
Protocol: Cells or tissues were prepared as previously described and F2,6BP content measured using a coupled enzyme reaction following a modification of the method of Van Schaftingen et al (VAN SCHAFTINGEN E et al. “A kinetic study of pyrophosphate:fructose-6-phosphate phosphotransferase from potato tubers. Application to a microassay of fructose 2,6-bisphosphate” Eur J Biochem (1982) Vol. 129, No. 1, pp. 191-195) and normalized to total cellular protein measured by the bicinchoninic acid assay (BCA, Thermo Scientific). For example, H460 cells were exposed to the indicated concentrations of MPN-2. In order to measure F2,6BP, cells were harvested, washed with PBS, lysed in NaOH/Tris acetate by heating at 80° C. and lysates neutralized to pH 7.2. F2,6BP content was measured using a coupled enzyme reaction following a modified method of Van Schaftingen et al (VAN SCHAFTINGEN E et al. “A kinetic study of pyrophosphate:fructose-6-phosphate phosphotransferase from potato tubers. Application to a microassay of fructose 2,6-bisphosphate” Eur J Biochem (1982) Vol. 129, No. 1, pp. 191-195). The F2,6BP concentration was normalized to total cellular protein measured by the bicinchoninic acid assay (BCA, Thermo Scientific). All data are expressed as the mean±SD of three experiments. Statistical significance was assessed by the two-sample t test (independent variable). […]

human cancer cell lines = assay: proliferation, viable cell count by trypan blue exclusion; format: cell-based; settings: counts at 48 hours shown
Protocol: Method: Cells were plated in 24 well plates and exposed to increasing concentrations of Formula (VIII). DMSO was used as a vehicle. After 24, 48 and 72 hours of exposure, cells were detached, and viable cells were counted by Trypan blue exclusion (representative counts at 48 hours shown).

cancer cells = assay: glycolysis assay (3H2O from 5-[3H]glucose); format: cell-based; settings: increasing concentrations
Protocol: Method: To examine glycolysis, cells growing in 6-well plates were incubated in 500 μl of complete medium containing 1 μCi of 5-[^3H] glucose per well for 60 min in 5% CO2 at 37° C. The medium was then collected and centrifuged to pellet any suspended cells. To separate the ^3H2O formed via glycolysis from the 5-[^3H]glucose added to the medium, an evaporation technique in a sealed system was utilized. Briefly, 150 μl aliquots of medium were added to open tubes that were placed upright inside scintillation vials containing 1 ml of H2O. The scintillation vials were sealed, and the ^3H2O produced by glycolysis through enolase and released to the medium was allowed to equilibrate with the H2O in the outer vial for 48 h at 37° C. The amounts of ^3H2O that had diffused into the surrounding H2O was measured on a Tri-Carb 2910 liquid scintillation analyzer (Perkin Elmer) and compared with ^3H2O and 5-[^3H]glucose standards. Protein concentration was determined using the BCA assay and counts were normalized to protein concentration (previously described in CHESNEY et al., “Fructose-2,6-bisphosphate synthesis by 6-phosphofructo-2-kinase/fructose-2,6-bisphosphatase 4 (PFKFB4) is required for the glycolytic response to hypoxia and tumor growth” Oncotarget (2014) Vol. 5, No. 16, pp. 6670-6686, which is herein incorporated by reference in its entirety).

Row | Structure (SMILES) | cell growth of transformed cells (hT/LT/Ras cells) | apoptotic cells (H460 cells [1]) | cell cycle distribution (H460 cells [2]; H460, 10 μM 5MPN) | effect of overexpression of PFKFB4 on G1 arrest (H460 cells [2]; H460 transfected with PFKFB4, 10 μM 5MPN, 24 hours) | intratumoral F2,6BP (LLC xenografts) | proliferation (cell counts relative to DMSO) (human cancer cell lines) | glycolysis (production of 3H2O relative to DMSO) (cancer cells)
1 | COc1cccc2c(NCCCCCO[N+](=O)[O-])ccnc12 [5MPN, 5-[(8-methoxyquinolin-4-yl)amino]pentyl nitrate] | suppressed | increase in apoptotic cells | G1 arrest | reversed | reduction | – | –
2 | COc1cccc2c(NCCCCCNC(=O)C(F)(F)F)ccnc12 [Formula (VIII), 2,2,2-trifluoro-N-(5-((8-methoxyquinolin-4-yl)amino)pentyl)acetamide] | – | – | – | – | – | decreases the proliferation of human cancer cell lines in vitro with higher potency than 5MPN | dose-dependent decrease
